Experimental data from ChEMBL document CHEMBL3352572, “Design, synthesis and antioxidant activity evaluation of novel β-elemene derivatives” (Bioorg Med Chem Lett, 2014).

Assays:
[1] = tested on: HUVEC; assay: Antioxidant activity in HUVEC assessed as suppression of ROS production by measuring fluorescent intensity index at 5 uM pre-incubated for 24 hrs before H2O2 stimulation for 2 hrs by DCF dye based fluorimetric assay; format: functional, Homo sapiens
[2] = tested on: HUVEC; assay: Antioxidant activity in HUVEC assessed as suppression of ROS production pre-incubated for 24 hrs before H2O2 stimulation for 2 hrs by DCF dye based fluorescence microscopy; format: functional, cell-based; details: Homo sapiens
[3] = tested on: HUVEC; assay: Antioxidant activity in HUVEC assessed as suppression of ROS production at 0.5 uM pre-incubated for 24 hrs before H2O2 stimulation for 2 hrs by DCF dye based fluorescence microscopy; format: functional, cell-based; details: Homo sapiens
[4] = tested on: HUVEC; assay: Increase in SOD activity in H2O2-treated HUVEC at 0.5 to 50 uM pre-incubated for 24 hrs before H2O2 stimulation for 2 hrs; format: functional, cell-based; details: Homo sapiens
[5] = tested on: HUVEC; assay: Increase in nitric oxide secretion in H2O2-treated HUVEC at 0.5 to 50 uM pre-incubated for 24 hrs before H2O2 stimulation for 2 hrs; format: functional, cell-based; details: Homo sapiens
[6] = tested on: HUVEC; assay: Reduction in MDA level in H2O2-treated HUVEC at 0.5 to 50 uM pre-incubated for 24 hrs before H2O2 stimulation for 2 hrs; format: functional, cell-based; details: Homo sapiens
[7] = tested on: HUVEC; assay: Reduction in LDH release in H2O2-treated HUVEC at 0.5 to 50 uM pre-incubated for 24 hrs before H2O2 stimulation for 2 hrs; format: functional, cell-based; details: Homo sapiens
[8] = tested on: HUVEC; assay: Cytoprotective activity in H2O2-treated HUVEC assessed as reduction in H2O2-induced cell death at 0.5 to 50 uM pre-incubated for 24 hrs before H2O2 stimulation for 2 hrs by MTT assay; format: functional, cell-based; details: Homo sapiens
[9] = tested on: HUVEC; assay: Cytoprotective activity in H2O2-treated HUVEC assessed as cell survival at 50 uM pre-incubated for 24 hrs before H2O2 stimulation for 2 hrs by MTT assay (reference value: 66.91%); format: functional; details: Homo sapiens, read-out: Survival
[10] = Cytotoxicity against HUVEC assessed as cell survival at 0.5 to 50 uM after 24 hrs by MTT assay; format: cell-based; details: human, HUVEC cells; read-out: Survival
[11] = tested on: HUVEC; assay: Cytotoxicity against HUVEC assessed as cell death 1000 uM after 24 hrs by MTT assay; format: cell-based; details: human
[12] = tested on: HUVEC; assay: Antioxidant activity in HUVEC assessed as suppression of ROS production by measuring fluorescent intensity index at 100 uM pre-incubated for 24 hrs before H2O2 stimulation for 2 hrs by DCF dye based fluorimetric assay; format: functional, cell-based; details: Homo sapiens
[13] = tested on: HUVEC; assay: Antioxidant activity in HUVEC assessed as suppression of ROS production by measuring fluorescent intensity index at 10 uM pre-incubated for 24 hrs before H2O2 stimulation for 2 hrs by DCF dye based fluorimetric assay; format: functional, Homo sapiens
[14] = tested on: HUVEC; assay: Cytoprotective activity in H2O2-treated HUVEC assessed as cell survival at 0.5 uM pre-incubated for 24 hrs before H2O2 stimulation for 2 hrs by MTT assay (reference value: 66.91%); format: functional; details: Homo sapiens, read-out: Survival

For C=C[C@]1(C)CC[C@@H](C(=C)COC(=O)c2ccccc2C(=O)OCC(=C)[C@@H]2CC[C@@](C)(C=C)[C@H](C(=C)C)C2)C[C@H]1C(=C)C, the Flu intensity [1] was 1.114, the inhibition [2] was “Dose-dependent effect” and the inhibition [3] was “Dose-dependent effect”. For the same compound, the Activity [4] was “Dose-dependent effect”, the Activity [5] was “Dose-dependent effect” and the inhibition [6] was “Dose-dependent effect”. The inhibition [7] was “Dose-dependent effect”, the Activity [8] was “Dose-dependent effect” and the viability at 50 µM [9] was 97.9%. For the same compound, the viability at 24 h, up to 50 µM [10] was over 92% and the Activity [11] was “<= 50%”.
Work on C=C[C@]1(C)CC[C@@H](C(=C)COC(=O)c2ccccc2O)C[C@H]1C(=C)C yielded a Flu intensity [1] of 1.286.
Work on C=C[C@]1(C)CC[C@@H](C(=C)C)C[C@H]1C(=C)COC(=O)CCC yielded a Flu intensity [1] of 1.338.
Work on VITAMIN E yielded a Flu intensity [12] of 1.23.
For C=C[C@]1(C)CC[C@@H](C(=C)C)C[C@H]1C(=C)COC(C)=O, the Flu intensity [1] was 1.322.
Work on C=C[C@]1(C)CC[C@@H](C(=C)COC(=O)c2cccc(F)c2)C[C@H]1C(=C)C yielded a Flu intensity [1] of 1.39.
In the case of C=C[C@]1(C)CC[C@@H](C(=C)C)C[C@H]1C(=C)C, the Flu intensity [1] was 1.281 and the Flu intensity [13] was 1.23.
In the case of C=C[C@]1(C)CC[C@@H](C(=C)C)C[C@H]1C(=C)COC(=O)CC, the Flu intensity [1] was 1.383.
C=C[C@]1(C)CC[C@@H](C(=C)C)C[C@H]1C(=C)COC(=O)c1ccncc1 gave a Flu intensity [1] of 1.411.
For C=C[C@]1(C)CC[C@@H](C(=C)COC(=O)c2ccccc2C(=O)O)C[C@H]1C(=C)C, the Flu intensity [1] was 1.416.
In the case of C=C[C@]1(C)CC[C@@H](C(=C)C)C[C@H]1C(=C)COC(=O)c1ccccc1O, the Flu intensity [1] was 1.376.
C=C[C@]1(C)CC[C@@H](C(=C)COC(=O)CCC(=O)O)C[C@H]1C(=C)C showed a Flu intensity [1] of 1.403.
In the case of C=C[C@]1(C)CC[C@@H](C(=C)COC(=O)c2ccc(Cl)cc2)C[C@H]1C(=C)C, the Flu intensity [1] was 1.324.
C=C[C@]1(C)CC[C@@H](C(=C)C)C[C@H]1C(=C)COC(=O)CCC(=O)OCC(=C)[C@@H]1C[C@H](C(=C)C)CC[C@@]1(C)C(=C)C gave a Flu intensity [1] of 1.123.
C=C[C@]1(C)CC[C@@H](C(=C)C)C[C@H]1C(=C)COC(=O)c1ccc(OC)cc1 showed a Flu intensity [1] of 1.387.
With C=C[C@]1(C)CC[C@@H](C(=C)C)C[C@H]1C(=C)COC(=O)c1ccc(Cl)cc1 the Flu intensity [1] was 1.458.
C=C[C@]1(C)CC[C@@H](C(=C)C)C[C@H]1C(=C)COC(=O)c1ccccc1C(=O)O gave a Flu intensity [1] of 1.415.
C=C[C@]1(C)CC[C@@H](C(=C)C)C[C@H]1C(=C)COC(=O)c1ccccc1 showed a Flu intensity [1] of 1.445.
Work on C=C[C@]1(C)CC[C@@H](C(=C)COC(=O)CC)C[C@H]1C(=C)C yielded a Flu intensity [1] of 1.322.
With C=C[C@]1(C)CC[C@@H](C(=C)C)C[C@H]1C(=C)CO the Flu intensity [1] was 1.37.
In the case of C=C[C@]1(C)CC[C@@H](C(=C)COC(=O)CCC(=O)OCC(=C)[C@@H]2CC[C@@](C)(C=C)[C@H](C(=C)C)C2)C[C@H]1C(=C)C, the Flu intensity [1] was 1.092, the inhibition [2] was “Dose-dependent effect” and the inhibition [3] was “Dose-dependent effect”. The Activity [4] was “Dose-dependent effect”, the Activity [5] was “Dose-dependent effect” and the inhibition [6] was “Dose-dependent effect”. The inhibition [7] was “Dose-dependent effect”, the Activity [8] was “Dose-dependent effect” and the viability at 0.5 µM [14] was 81.2%. The viability at 50 µM [9] was 100%, the viability at 24 h, up to 50 µM [10] was over 92% and the Activity [11] was “<= 50%”.
Compound C=C[C@]1(C)CC[C@@H](C(=C)COC(=O)c2ccccc2Cl)C[C@H]1C(=C)C has a Flu intensity [1] of 1.388.
Work on C=C[C@]1(C)CC[C@@H](C(=C)C)C[C@H]1C(=C)COC(=O)c1cccc(F)c1 yielded a Flu intensity [1] of 1.39.
In the case of C=C[C@]1(C)CC[C@@H](C(=C)C)C[C@H]1C(=C)COC(=O)c1ccc(C)cc1, the Flu intensity [1] was 1.322.
C=C[C@]1(C)CC[C@@H](C(=C)CO)C[C@H]1C(=C)C showed a Flu intensity [1] of 1.291.
Work on C=C[C@]1(C)CC[C@@H](C(=C)C)C[C@H]1C(=C)COC(=O)c1cccnc1 yielded a Flu intensity [1] of 1.397.
Compound C=C[C@]1(C)CC[C@@H](C(=C)C)C[C@H]1C(=C)COC(=O)c1ccccc1C(=O)OCC(=C)[C@@H]1C[C@H](C(=C)C)CC[C@@]1(C)C(=C)C has a Flu intensity [1] of 1.168.
For C=C[C@]1(C)CC[C@@H](C(=C)C)C[C@H]1C(=C)COC(=O)c1ccco1, the Flu intensity [1] was 1.39.
In the case of C=C[C@]1(C)CC[C@@H](C(=C)C)C[C@H]1C(=C)COC(=O)CCC(=O)O, the Flu intensity [1] was 1.468.
C=C[C@]1(C)CC[C@@H](C(=C)COC(=O)c2ccc([N+](=O)[O-])cc2)C[C@H]1C(=C)C showed a Flu intensity [1] of 1.304.
With C=C[C@]1(C)CC[C@@H](C(=C)COC(=O)c2ccncc2)C[C@H]1C(=C)C the Flu intensity [1] was 1.447.
In the case of C=C[C@]1(C)CC[C@@H](C(=C)COC(=O)c2ccco2)C[C@H]1C(=C)C, the Flu intensity [1] was 1.488.
Work on C=C[C@]1(C)CC[C@@H](C(=C)C)C[C@H]1C(=C)COC(=O)c1ccc(F)cc1 yielded a Flu intensity [1] of 1.306.
Compound C=C[C@]1(C)CC[C@@H](C(=C)COC(C)=O)C[C@H]1C(=C)C has a Flu intensity [1] of 1.391.
C=C[C@]1(C)CC[C@@H](C(=C)COC(=O)c2ccc(C)cc2)C[C@H]1C(=C)C gave a Flu intensity [1] of 1.411.
With C=C[C@]1(C)CC[C@@H](C(=C)C)C[C@H]1C(=C)COC(=O)c1ccc([N+](=O)[O-])cc1 the Flu intensity [1] was 1.393.
With C=C[C@]1(C)CC[C@@H](C(=C)C)C[C@H]1C(=C)COC(=O)c1ccccc1Cl the Flu intensity [1] was 1.443.
Compound C=C[C@]1(C)CC[C@@H](C(=C)COC(=O)c2cccnc2)C[C@H]1C(=C)C has a Flu intensity [1] of 1.524.
In the case of C=C[C@]1(C)CC[C@@H](C(=C)COC(=O)c2ccc(F)cc2)C[C@H]1C(=C)C, the Flu intensity [1] was 1.417.
In the case of C=C[C@]1(C)CC[C@@H](C(=C)COC(=O)c2ccc(OC)cc2)C[C@H]1C(=C)C, the Flu intensity [1] was 1.429.
C=C[C@]1(C)CC[C@@H](C(=C)COC(=O)c2ccccc2)C[C@H]1C(=C)C showed a Flu intensity [1] of 1.355.
C=C[C@]1(C)CC[C@@H](C(=C)COC(=O)CCC)C[C@H]1C(=C)C showed a Flu intensity [1] of 1.365.
